IC50 data for 34 molecules are collected here from PubChem BioAssay AID651650 (Sanford-Burnham Center for Chemical Genomics, 2012).

This test deals with Neuropilin-1 (Homo sapiens) (UniProt O14786). Put plainly: blockers of CendR peptide binding to NRP-1 – biochemical, FP and AlphaScreen panel, dose response (AID 651650). To be noted: NRP-1 b1b2 / RPARPAR peptide binding, FP or AlphaScreen. Background: Bead proximity is the source of the signal in Alpha formats.
The mark [1] stands for this setting: AlphaScreen, run 1, individual panel run IC50.
Where [2] appears, read: FP, run 1, individual panel run IC50.
The mark [3] stands for this setting: FP, run 2, individual panel run IC50.

Structures are written as SMILES. Active and inactive are the calls of the source.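 Rule for the calls: active = mean IC50 below 20 µM in each of the two panels, so potent in both; inactive = the rest.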 A value given as a limit tells only on which side of the number the result lay.

Chain of Neuropilin-1 (Homo sapiens) (O14786 whole entry, looked up): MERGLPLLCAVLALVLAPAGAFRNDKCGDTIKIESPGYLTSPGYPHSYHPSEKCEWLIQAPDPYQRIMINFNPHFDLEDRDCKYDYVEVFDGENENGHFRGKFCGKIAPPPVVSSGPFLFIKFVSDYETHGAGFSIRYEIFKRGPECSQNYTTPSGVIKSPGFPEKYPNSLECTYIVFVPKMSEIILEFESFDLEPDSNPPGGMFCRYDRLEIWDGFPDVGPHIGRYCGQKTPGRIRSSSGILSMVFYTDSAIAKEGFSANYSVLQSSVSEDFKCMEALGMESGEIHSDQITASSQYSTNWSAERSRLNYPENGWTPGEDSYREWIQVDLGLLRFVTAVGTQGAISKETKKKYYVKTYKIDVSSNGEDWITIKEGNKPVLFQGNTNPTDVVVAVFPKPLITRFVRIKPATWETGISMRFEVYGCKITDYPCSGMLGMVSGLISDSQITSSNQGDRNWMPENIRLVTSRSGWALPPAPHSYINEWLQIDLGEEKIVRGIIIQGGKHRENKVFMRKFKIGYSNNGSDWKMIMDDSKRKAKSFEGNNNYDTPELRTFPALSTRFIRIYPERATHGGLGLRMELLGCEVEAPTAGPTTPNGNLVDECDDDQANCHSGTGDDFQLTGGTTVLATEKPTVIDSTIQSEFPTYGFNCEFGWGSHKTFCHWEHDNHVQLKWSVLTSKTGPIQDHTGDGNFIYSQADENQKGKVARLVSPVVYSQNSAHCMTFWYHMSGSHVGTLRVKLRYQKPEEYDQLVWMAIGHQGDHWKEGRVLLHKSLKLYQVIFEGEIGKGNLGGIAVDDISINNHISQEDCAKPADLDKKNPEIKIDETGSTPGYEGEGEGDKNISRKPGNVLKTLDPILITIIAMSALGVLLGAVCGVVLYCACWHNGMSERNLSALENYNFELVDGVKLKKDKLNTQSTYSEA

A word on the IC50: it is the concentration at which inhibition is half-maximal. Turning to `CCOCCCNC(=O)C(c1ccc(C)cc1)N(Cc1cccs1)C(=O)c1ccccc1O` (stereo not given), the IC50 is > 100 µM (inactive) (AlphaScreen, mean of runs); greater than 100 µM under setting [1]; > 95 µM (inactive) (FP, mean of runs); greater than 95 µM under setting [2]; greater than 95 µM under setting [3].

As to `CCOC(=O)c1ccc(N2CCN(C(=O)c3ccccc3)CC2)c(NC(=O)c2ccco2)c1`, the IC50 is, setting by setting: (AlphaScreen, mean of runs) > 100 µM (inactive); under setting [1], greater than 100 µM; (FP, mean of runs) > 95 µM (inactive); under setting [2], greater than 95 µM; under setting [3], greater than 95 µM.

`COc1ccc(C(=O)N2CCC(C)(C(=O)NS(=O)(=O)C3CC3)C2)cc1F` (stereo not given): the IC50 was > 100 µM (inactive) (AlphaScreen, mean of runs); greater than 100 µM under setting [1]; > 95 µM (inactive) (FP, mean of runs); greater than 95 µM under setting [2]; greater than 95 µM under setting [3].

In the case of `Cc1cc(=O)n2nc(N3CCCC(C(=O)N4CCOCC4)C3)sc2n1` (stereo not given), the IC50 reads like this: (AlphaScreen, mean of runs) > 100 µM (inactive); under setting [1], greater than 100 µM; (FP, mean of runs) > 95 µM (inactive); under setting [2], greater than 95 µM; under setting [3], greater than 95 µM.

`Cc1ccc(NC(=S)Nc2cccc3ccccc23)cc1`: the IC50 is > 100 µM (inactive) (AlphaScreen, mean of runs); greater than 100 µM under setting [1]; > 95 µM (inactive) (FP, mean of runs); greater than 95 µM under setting [2]; greater than 95 µM under setting [3].

`CCNC(=O)C1(C)CCCN(C(=O)c2nc(C)oc2C)C1` (stereo not given): the IC50 (AlphaScreen, mean of runs) is > 100 µM (inactive); the 50% inhibitory concentration (IC50) under setting [1] is greater than 100 µM; the IC50 (FP, mean of runs) is > 95 µM (inactive); the half-maximal inhibitory concentration (IC50) under setting [2] is greater than 95 µM; the half-inhibitory concentration (IC50) under setting [3] was greater than 95 µM.

As for `O=C(c1ccc(-c2cccc(C(F)(F)F)c2)o1)N1CCCC(C(F)(F)F)C1` (stereo not given), the IC50 (AlphaScreen, mean of runs) was > 100 µM (inactive); the IC50 under setting [1] was greater than 100 µM; the IC50 (FP, mean of runs) is > 95 µM (inactive); the IC50 under setting [2] is greater than 95 µM; the IC50 under setting [3] is greater than 95 µM.

Turning to `NC1=NC[C@@H](Cc2ccc(O)cc2)N1CCCCC1CCCCC1`, the IC50 is, setting by setting: (AlphaScreen, mean of runs) > 100 µM (inactive); under setting [1], greater than 100 µM; (FP, mean of runs) > 95 µM (inactive); under setting [2], greater than 95 µM; under setting [3], greater than 95 µM.

Take `COc1ccc(NC(=O)C(C)Sc2ccccc2)cc1` (stereo not given): the IC50 runs as follows: (AlphaScreen, mean of runs) > 100 µM (inactive); under setting [1], greater than 100 µM; (FP, mean of runs) > 95 µM (inactive); under setting [2], greater than 95 µM; under setting [3], greater than 95 µM.

Take `CC(Nc1nc(-c2ccc(F)cc2)cs1)c1nc2cc(C(F)(F)F)ccc2n1CCOCCO` (stereo not given): the IC50 runs as follows: (AlphaScreen, mean of runs) > 100 µM (inactive); under setting [1], greater than 100 µM; (FP, mean of runs) > 95 µM (inactive); under setting [2], greater than 95 µM; under setting [3], greater than 95 µM.

As for `C=CCOc1c(CNc2ncn[nH]2)cccc1OCC`, the IC50 is, setting by setting: (AlphaScreen, mean of runs) > 100 µM (inactive); under setting [1], greater than 100 µM; (FP, mean of runs) 9.9 µM; under setting [2], 9.93 µM; under setting [3], greater than 95 µM.

As for `COc1ccccc1COc1ccc2c(C)c(CC(=O)O)c(=O)oc2c1C`, the IC50 (AlphaScreen, mean of runs) was > 100 µM (inactive); the IC50 under setting [1] is greater than 100 µM; the IC50 (FP, mean of runs) is > 95 µM (inactive); the IC50 under setting [2] is greater than 95 µM; the concentration for half-maximal inhibition (IC50) under setting [3] was greater than 95 µM.

As to `CCO[C@@H]1OC(C(=O)NCc2ccccc2)=C[C@H](c2ccc(Br)cc2)[C@H]1CCCO`, the IC50 result (AlphaScreen, mean of runs) was “inactive”. The IC50 is, setting by setting: under setting [1], 22.1 µM; (FP, mean of runs) > 95 µM (inactive); under setting [2], greater than 95 µM; under setting [3], greater than 95 µM.

For the molecule `O=C(CSc1nnc(Cc2ccccc2)n1Cc1ccccc1)NCc1ccco1`, the IC50 runs as follows: (AlphaScreen, mean of runs) > 100 µM (inactive); under setting [1], greater than 100 µM; (FP, mean of runs) > 95 µM (inactive); under setting [2], greater than 95 µM; under setting [3], greater than 95 µM.

Regarding `CCOC(=O)C1=CCN(S(=O)(=O)c2ccccc2Br)C1c1ccccc1` (stereo not given), the IC50 (AlphaScreen, mean of runs) is > 100 µM (inactive); the half-maximal inhibitory concentration (IC50) under setting [1] was greater than 100 µM; the IC50 (FP, mean of runs) is > 95 µM (inactive); the 50% inhibitory concentration (IC50) under setting [2] was greater than 95 µM; the half-inhibitory concentration (IC50) under setting [3] was greater than 95 µM.

As for `CCN1C(=O)C(=O)c2cc(C)ccc21`, the IC50 reads like this: (AlphaScreen, mean of runs) > 100 µM (inactive); under setting [1], greater than 100 µM; (FP, mean of runs) > 95 µM (inactive); under setting [2], greater than 95 µM; under setting [3], greater than 95 µM.

Consider `O=C(CSc1nc(O)c(Cc2ccccc2)c(=O)n1-c1ccccc1)N1CCOCC1`, for which the IC50 is, setting by setting: (AlphaScreen, mean of runs) > 100 µM (inactive); under setting [1], greater than 100 µM; (FP, mean of runs) > 95 µM (inactive); under setting [2], greater than 95 µM; under setting [3], greater than 95 µM.

Regarding `Nc1cc(S(=O)(=O)O)cc([N+](=O)[O-])c1O`, the concentration for half-maximal inhibition (IC50) is 4.28 µM (AlphaScreen, mean of runs); 4.28 µM under setting [1]; > 95 µM (inactive) (FP, mean of runs); greater than 95 µM under setting [2]; greater than 95 µM under setting [3].

Turning to `NC(=S)NNC(=S)Nc1ccccc1`, the IC50 is > 100 µM (inactive) (AlphaScreen, mean of runs); greater than 100 µM under setting [1]; > 95 µM (inactive) (FP, mean of runs); greater than 95 µM under setting [2]; greater than 95 µM under setting [3].

For `FC(F)(F)c1cc(C(F)(F)F)c2ccc(Oc3ccccc3)nc2n1`, the IC50 is > 100 µM (inactive) (AlphaScreen, mean of runs); greater than 100 µM under setting [1]; > 95 µM (inactive) (FP, mean of runs); greater than 95 µM under setting [2]; greater than 95 µM under setting [3].

As for `O=C(COc1cc(Cl)c(Cl)cc1Cl)Nc1ccc([N+](=O)[O-])cc1Cl`, the IC50 is, setting by setting: (AlphaScreen, mean of runs) > 100 µM (inactive); under setting [1], greater than 100 µM; (FP, mean of runs) > 95 µM (inactive); under setting [2], greater than 95 µM; under setting [3], greater than 95 µM.

Regarding `CCOC(=O)[C@@H]1[C@H]2COc3ccccc3[C@@H]2N2C(=O)N(c3ccc(Cl)cc3)C(=O)[C@]12C`, the half-inhibitory concentration (IC50) was 7.51 µM (AlphaScreen, mean of runs); 7.51 µM under setting [1]; > 95 µM (inactive) (FP, mean of runs); greater than 95 µM under setting [2]; greater than 95 µM under setting [3].

As to `COc1cc2oc(=O)ccc2cc1[C@@H](O)[C@@H]1OC(C)(C)OC1(C)C`, the IC50 runs as follows: (AlphaScreen, mean of runs) > 100 µM (inactive); under setting [1], greater than 100 µM; (FP, mean of runs) > 95 µM (inactive); under setting [2], greater than 95 µM; under setting [3], greater than 95 µM.

`CC(NCCOCCOc1ccccc1)c1ccccc1` (stereo not given): the IC50 runs as follows: (AlphaScreen, mean of runs) > 100 µM (inactive); under setting [1], greater than 100 µM; (FP, mean of runs) > 95 µM (inactive); under setting [2], greater than 95 µM; under setting [3], greater than 95 µM.

`NS(=O)(=O)c1cccnc1Nc1cccc(Cl)c1Cl`: the IC50 is, setting by setting: (AlphaScreen, mean of runs) > 100 µM (inactive); under setting [1], greater than 100 µM; (FP, mean of runs) > 95 µM (inactive); under setting [2], greater than 95 µM; under setting [3], greater than 95 µM.

On to `CCN(C[C@H]1N[C@@](CC)(C(=O)OC)[C@H]2C(=O)N(C)C(=O)[C@@H]12)S(=O)(=O)c1ccc(OC)cc1`, for which the IC50 was > 100 µM (inactive) (AlphaScreen, mean of runs); greater than 100 µM under setting [1]; > 95 µM (inactive) (FP, mean of runs); greater than 95 µM under setting [2]; greater than 95 µM under setting [3].

As to `CCCN=C1N/C(=C\c2ccco2)C(=O)N1c1ccccc1`, the IC50 was > 100 µM (inactive) (AlphaScreen, mean of runs); greater than 100 µM under setting [1]; > 95 µM (inactive) (FP, mean of runs); greater than 95 µM under setting [2]; greater than 95 µM under setting [3].

Turning to `COCc1cccc(-c2csc(C(C)(O)c3ccccc3)n2)c1` (stereo not given), the IC50 was > 100 µM (inactive) (AlphaScreen, mean of runs); greater than 100 µM under setting [1]; > 95 µM (inactive) (FP, mean of runs); greater than 95 µM under setting [2]; greater than 95 µM under setting [3].

Take `COC(=O)C[C@H]1c2cc(F)ccc2S(=O)(=O)N1C(C)C`: the IC50 was > 100 µM (inactive) (AlphaScreen, mean of runs); greater than 100 µM under setting [1]; > 95 µM (inactive) (FP, mean of runs); greater than 95 µM under setting [2]; greater than 95 µM under setting [3].

With `COc1cccc(N2[C@@H](CC(C)=O)c3ccc(/C=C/C(C)=O)cc3S2(=O)=O)c1`, the IC50 reads like this: (AlphaScreen, mean of runs) > 100 µM (inactive); under setting [1], greater than 100 µM; (FP, mean of runs) > 95 µM (inactive); under setting [2], greater than 95 µM; under setting [3], greater than 95 µM.

On to `Cc1ccc(C(=O)OCC(=O)c2ccc(Cl)s2)s1`, for which the IC50 by setting is: (AlphaScreen, mean of runs) > 100 µM (inactive); under setting [1], greater than 100 µM; (FP, mean of runs) > 95 µM (inactive); under setting [2], greater than 95 µM; under setting [3], greater than 95 µM.

Take `C=CCNC(=O)c1onc(CSc2ccc(F)c(F)c2)c1C(=O)NCC=C`: the IC50 was > 100 µM (inactive) (AlphaScreen, mean of runs); greater than 100 µM under setting [1]; > 95 µM (inactive) (FP, mean of runs); greater than 95 µM under setting [2]; greater than 95 µM under setting [3].

For the molecule `O=C(COC(=O)C1CC(=O)N(Cc2ccccc2)C1)Nc1ccccc1F` (stereo not given), where the note is “AlphaScreen, mean of runs”, the IC50 result was “inactive”. In addition, the IC50 runs as follows: under setting [1], 44.6 µM; (FP, mean of runs) > 95 µM (inactive); under setting [2], greater than 95 µM; under setting [3], greater than 95 µM.

As for `C[C@@H](NC(=O)c1nc[nH]c1C(=O)NCc1ccccc1)c1ccccc1`, the IC50 by setting is: (AlphaScreen, mean of runs) > 100 µM (inactive); under setting [1], greater than 100 µM; (FP, mean of runs) > 95 µM (inactive); under setting [2], greater than 95 µM; under setting [3], greater than 95 µM.
